Results on 6 molecules are retold here after patent publication US20250309306A1, “Cationic Viologen Derivatives and Use Thereof in Redox Flow Batteries” (priority 2024, published 2025).

Type in all cases: physicochemical
The nature of data set [1]: Pulse voltammetry (SWV/DPV), three-electrode cell: redox potential of first reduction.
Data set [2] is described as follows: Cyclic voltammetry, repeated charging-discharging cycles (integrated area over 100 scans).
Data set [3] can be described thus: Water solubility by quantitative NMR. Particulars: for solubility: water (D2O), water, thermodynamic from solid. On the procedure:
The compound to be tested was dissolved in 100 μl D2O until saturation was reached. Any undissolved compound was filtered off and the filtrate was combined with a standard solution containing a known amount of a calibration compound as an internal reference. The sample is investigated using 1H NMR. […] The solubility of the compound to be tested was then calculated from a relative concentration determination based on the known calibration compound concentration.

Data set [4] is described as follows: Reaction rate (k°).
A short description of data set [5]: Diffusion coefficient by Levic plot, rotating disk electrode. On the procedure:
The diffusion coefficient of molecules was measured using Levic plot, obtained using a rotating disk electrode (RDE) setup according to standard procedures.

Setting [6] is: Table 2, Ag/AgCl reference, +0.200 V offset applied, glassy carbon working electrode.
Where [7] appears, read: Table 3, comparison of transquat, diquat and annulated diquat.

The solubility is the concentration that dissolves in the medium under given conditions. High values mean a readily soluble substance, low ones a poorly soluble substance. With `CCOc1cc2c3[n+](c1)CCc1cc(OCC)c[n+](c1-3)CC2.Cl`, in data set [1] (setting [6]), the “Redox Potential (V vs SHE)” value is recorded as −0.80 V vs SHE. Also, the “Capacity over 100 cycles” value in data set [2] (Table 2) turned out to be 0.99. The molecule also came in with a solubility in data set [3] (Table 2, at 20°C) above 1500 mM. In data set [4] (Table 2), the “Reaction Rate (k°, in cm/s)” value came to 0.00615 cm/s. For the same molecule, in data set [5] (Table 2), the “Diffusion coefficient (D, in cm^2s^−1)” value is given as 1.41 × 10^−5 cm^2s^−1.

Regarding `COc1cc[n+]2c3c1CC[n+]1ccc(OC)c(c1-3)CC2.[Cl-].[Cl-]`, in data set [1] (setting [6]), the “Redox Potential (V vs SHE)” value is given as −0.80 V vs SHE. Further, the “Capacity over 100 cycles” value in data set [2] (Table 2) is recorded as 0.80. Also, the “Solubility in water (M, at 20°C)” value in data set [3] (Table 2, at 20°C) was “Low”. Besides, the “Reaction Rate (k°, in cm/s)” value in data set [4] (Table 2) amounted to 0.00414 cm/s. Moreover, in data set [5] (Table 2), the “Diffusion coefficient (D, in cm^2s^−1)” value is 2.5 × 10^−6 cm^2s^−1.

In the case of `Cc1cc2c3[n+](c1)CCc1cc(C)c[n+](c1-3)CC2.[Cl-].[Cl-]`, in data set [1] (setting [6]), the “Redox Potential (V vs SHE)” value is −0.59 V vs SHE. For the same molecule, the “Capacity over 100 cycles” value in data set [2] (Table 2) turned out to be 0.95. This molecule returned a solubility in data set [3] (Table 2, at 20°C) of around 1000 mM. Further, in data set [4] (Table 2), the “Reaction Rate (k°, in cm/s)” value is 0.016 cm/s. For the same molecule, in data set [5] (Table 2), the “Diffusion coefficient (D, in cm^2s^−1)” value is 6.45 × 10^−6 cm^2s^−1.

With `[Cl-].[Cl-].c1cc2c3[n+](c1)CCCc1ccc[n+](c1-3)CCC2`, in data set [1] (setting [6]), the “Redox Potential (V vs SHE)” value was −0.64 V vs SHE. Also, the “Capacity over 100 cycles” value in data set [2] (Table 2) came out at 0.98. In addition, in data set [3] (Table 2, at 20°C), the solubility was above 1500 mM. Besides, in data set [4] (Table 2), the “Reaction Rate (k°, in cm/s)” value worked out at 0.0194 cm/s. In addition, in data set [5] (Table 2), the “Diffusion coefficient (D, in cm^2s^−1)” value was 1.63 × 10^−5 cm^2s^−1.

As to `[Cl-].[Cl-].c1cc2c3[n+](c1)CCc1ccc[n+](c1-3)CC2`, the “Redox Potential (V vs SHE)” value in data set [1] (setting [6]) and in data set [1] (setting [7]) was −0.48 V vs SHE each time. The “Capacity over 100 cycles” value in data set [2] (Table 2) and in data set [2] (Table 3) was 0.98 throughout. Further, the “Solubility in water (M, at 20° C.)” value in data set [3] (Table 3, at 20° C.) is above 1500 mM. In data set [3] (Table 2, at 20°C), this molecule came in with a solubility above 1500 mM. For the same molecule, the “Reaction Rate (k°, in cm/s)” value in data set [4] (Table 2) and in data set [4] (Table 3) was 0.00764 cm/s in each case. The “Diffusion coefficient (D, in cm^2s^−1)” value in data set [5] (Table 2) and in data set [5] (Table 3) was 1.62 × 10^−5 cm^2s^−1 in each case.

Take `[Br-].[Br-].c1cc2c3[n+](c1)CC[n+]1cccc(c1-3)CC2` [reference compound]: in data set [1] (setting [7]), the “Redox Potential (V vs SHE)” value is on record as −0.42 V vs SHE. In addition, the “Capacity over 100 cycles” value in data set [2] (Table 3) came to 0.98. In data set [3] (Table 3, at 20° C.), this molecule came in with a solubility above 1500 mM. The “Reaction Rate (k°, in cm/s)” value in data set [4] (Table 3) stood at 0.00768 cm/s. In addition, in data set [5] (Table 3), the “Diffusion coefficient (D, in cm^2s^−1)” value is given as 9.87 × 10^−6 cm^2s^−1.
